Measured values as given in ChEMBL document CHEMBL1201862, “PubChem BioAssay data set” (2004).
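Cells were grown in 96-well plates and exposed to each compound for 48 hours at five concentrations; endpoints were interpolated linearly between bracketing concentrations, or set to the highest concentration if not reached. GI50 is the concentration that inhibits growth by half.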 Active and inactive are the calls of the source. Cut-off read from the data, not from the text of the source: active = GI50 up to about 1.1 µM and inactive = higher.

How the values were obtained:
Test in all cases: growth of human tumour cells (NCI), 48 h
HOP-92 = test system: HOP-92
EKVX = test system: EKVX
HT-29 = test system: HT-29
MOLT-4 = test system: MOLT-4
786-0 = test system: 786-0
HCT-15 = test system: HCT-15
SF-295 = test system: SF-295
COLO 205 = test system: COLO 205
A549 = test system: A549
M19-MEL = test system: M19-MEL
CAKI-1 = test system: CAKI-1
Malme-3M = test system: Malme-3M
DMS-273 = test system: DMS-273
DLD-1 = test system: DLD-1
NCI-H460 = test system: NCI-H460
NCI-H522 = test system: NCI-H522
RXF 631 = test system: RXF 631
SK-MEL-2 = test system: SK-MEL-2
DMS-114 = test system: DMS-114
HCT-116 = test system: HCT-116
NCI-H226 = test system: NCI-H226
SNB-78 = test system: SNB-78
UACC-257 = test system: UACC-257
OVCAR-3 = test system: OVCAR-3
XF498 = test system: XF498
HCC 2998 = test system: HCC 2998
UO-31 = test system: UO-31
IGROV-1 = test system: IGROV-1
NCI-H23 = test system: NCI-H23
HOP-62 = test system: HOP-62
SW-620 = test system: SW-620
K562 = test system: K562
SN12C = test system: SN12C
OVCAR-8 = test system: OVCAR-8
ACHN = test system: ACHN
SNB-75 = test system: SNB-75
KM12 = test system: KM12
LOX IMVI = test system: LOX IMVI
RXF 393 = test system: RXF 393
KM-20L2 = test system: KM-20L2
HOP-18 = test system: HOP-18
SK-MEL-5 = test system: SK-MEL-5
HL-60 = test system: HL-60
SF-268 = test system: SF-268
OVCAR-4 = test system: OVCAR-4
TK-10 = test system: TK-10
SK-MEL-28 = test system: SK-MEL-28
SF-539 = test system: SF-539
SNB-19 = test system: SNB-19
U-251 = test system: U-251
SR = test system: SR
OVCAR-5 = test system: OVCAR-5
SK-OV-3 = test system: SK-OV-3
CCRF-CEM = test system: CCRF-CEM
M14 = test system: M14
RPMI-8226 = test system: RPMI-8226
UACC-62 = test system: UACC-62
LXFL 529 = test system: LXFL 529
A498 = test system: A498

Measured: GI50

CCCCOP1(=O)C=C(C)C(=C(Cl)Cl)C(C)=C1 (configuration not stated)
11.5 µM: HCT-15
inactive: HOP-92 1.5 µM | EKVX 47.4 µM | HT-29 4.33 µM | MOLT-4 3.02 µM | 786-0 12.5 µM | SF-295 6.61 µM | COLO 205 5.25 µM | A549 6.58 µM | M19-MEL 11.5 µM | CAKI-1 5.83 µM | Malme-3M 14.1 µM | DMS-273 3.63 µM | DLD-1 16.2 µM | NCI-H460 13 µM | NCI-H522 5.45 µM | RXF 631 16.9 µM | SK-MEL-2 1.98 µM | DMS-114 3.48 µM | HCT-116 2.3 µM | NCI-H226 3.38 µM | UACC-257 5.43 µM | OVCAR-3 17.9 µM | XF498 13.6 µM | HCC 2998 22.3 µM | UO-31 19.5 µM | IGROV-1 14.8 µM | NCI-H23 12.4 µM | HOP-62 13.9 µM | SW-620 3.98 µM | K562 3.85 µM | SN12C 7.31 µM | OVCAR-8 17.9 µM | ACHN 6.43 µM | SNB-75 11.4 µM | KM12 2 µM | LOX IMVI 5.21 µM | RXF 393 8.51 µM | KM-20L2 2.31 µM | HOP-18 22.7 µM | SK-MEL-5 3.84 µM | HL-60 2.4 µM | SF-268 5.56 µM | OVCAR-4 23.8 µM | TK-10 11.2 µM | SK-MEL-28 8.17 µM | SF-539 23.6 µM | SNB-19 25.8 µM | U-251 6.97 µM | SR 3.2 µM | OVCAR-5 45.1 µM | SK-OV-3 19.5 µM | CCRF-CEM 4.2 µM | M14 11.6 µM | RPMI-8226 2.74 µM | UACC-62 7.01 µM
active: SNB-78 0.925 µM

Nc1nc(Cl)cc(NCCCNc2cc(Cl)nc(N)n2)n1
inactive: HOP-92 > 100 µM | EKVX > 100 µM | HT-29 > 100 µM | MOLT-4 > 100 µM | SF-295 > 100 µM | COLO 205 > 100 µM | A549 > 100 µM | M19-MEL > 100 µM | Malme-3M > 100 µM | DMS-273 > 100 µM | DLD-1 > 100 µM | NCI-H460 > 100 µM | RXF 631 > 100 µM | SK-MEL-2 > 100 µM | DMS-114 > 100 µM | HCT-116 > 100 µM | NCI-H226 > 100 µM | UACC-257 > 100 µM | OVCAR-3 > 100 µM | XF498 > 100 µM | HCC 2998 > 100 µM | UO-31 > 100 µM | IGROV-1 > 100 µM | NCI-H23 > 100 µM | HOP-62 > 100 µM | SW-620 > 100 µM | K562 > 100 µM | LXFL 529 > 100 µM | SN12C > 100 µM | OVCAR-8 > 100 µM | SNB-75 > 100 µM | KM12 > 100 µM | LOX IMVI > 100 µM | RXF 393 > 100 µM | KM-20L2 > 100 µM | HOP-18 > 100 µM | SK-MEL-5 > 100 µM | HL-60 > 100 µM | SF-268 > 100 µM | OVCAR-4 > 100 µM | TK-10 > 100 µM | SK-MEL-28 > 100 µM | SF-539 > 100 µM | U-251 > 100 µM | SR > 100 µM | OVCAR-5 > 100 µM | SK-OV-3 > 100 µM | CCRF-CEM > 100 µM | M14 > 100 µM | RPMI-8226 > 100 µM | UACC-62 > 100 µM | A498 > 100 µM
> 100 µM: HCT-15

CC1CC2OC(=O)CC2C[C@@H]1O[Si](C)(C)C(C)(C)C (some centres not stated)
54.5 µM: HCT-15
inactive: HOP-92 3.68 µM | EKVX > 100 µM | HT-29 40.5 µM | MOLT-4 21.5 µM | 786-0 80.9 µM | SF-295 58.7 µM | COLO 205 74.6 µM | A549 88.3 µM | M19-MEL 42.8 µM | CAKI-1 70.5 µM | Malme-3M 65.3 µM | DMS-273 33.7 µM | DLD-1 83.4 µM | NCI-H460 75.7 µM | RXF 631 44.5 µM | SK-MEL-2 83.4 µM | DMS-114 28 µM | HCT-116 38.5 µM | SNB-78 > 100 µM | UACC-257 61.8 µM | OVCAR-3 40.4 µM | HCC 2998 43.3 µM | UO-31 57.7 µM | IGROV-1 74.5 µM | NCI-H23 63 µM | HOP-62 48.9 µM | SW-620 > 100 µM | K562 36.1 µM | LXFL 529 68.7 µM | SN12C > 100 µM | OVCAR-8 81.5 µM | ACHN 43.9 µM | SNB-75 51.4 µM | KM12 44.3 µM | LOX IMVI 55.7 µM | KM-20L2 46.3 µM | HOP-18 > 100 µM | SK-MEL-5 27 µM | HL-60 20.6 µM | SF-268 64.4 µM | OVCAR-4 61 µM | TK-10 > 100 µM | SF-539 > 100 µM | SNB-19 > 100 µM | OVCAR-5 > 100 µM | SK-OV-3 > 100 µM | CCRF-CEM 36.8 µM | M14 94.6 µM | RPMI-8226 21.7 µM | UACC-62 68.7 µM | A498 > 10 µM
